Measurements taken from ChEMBL document CHEMBL5291721, “A preclinical secondary pharmacology resource illuminates target-adverse drug reaction associations of marketed drugs” (Nat Commun, 2023).

Tests used:
Histamine H2 receptor = Histamine H2 receptor (Homo sapiens, UniProt P25021); assay type: functional, cell-based
[1] = molecular target: T1, Alpha-2C adrenergic receptor (Homo sapiens, UniProt P18825); assay type: functional
T1 sequence (P18825 whole entry): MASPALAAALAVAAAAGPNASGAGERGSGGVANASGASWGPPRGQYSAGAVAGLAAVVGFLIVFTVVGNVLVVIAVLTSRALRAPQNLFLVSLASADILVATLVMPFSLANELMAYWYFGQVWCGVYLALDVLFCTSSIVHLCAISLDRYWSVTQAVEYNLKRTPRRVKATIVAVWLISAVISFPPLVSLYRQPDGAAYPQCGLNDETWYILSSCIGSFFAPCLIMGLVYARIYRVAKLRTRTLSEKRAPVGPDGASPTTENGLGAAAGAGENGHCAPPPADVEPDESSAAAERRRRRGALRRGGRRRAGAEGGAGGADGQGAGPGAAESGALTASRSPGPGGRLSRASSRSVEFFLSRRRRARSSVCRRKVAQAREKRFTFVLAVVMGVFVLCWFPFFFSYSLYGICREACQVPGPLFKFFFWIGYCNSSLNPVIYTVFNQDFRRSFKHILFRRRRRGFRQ

[2] = molecular target: Neuronal acetylcholine receptor subunit alpha-4 (Homo sapiens, UniProt P43681)
Sequence of Neuronal acetylcholine receptor subunit alpha-4 (P43681 whole entry): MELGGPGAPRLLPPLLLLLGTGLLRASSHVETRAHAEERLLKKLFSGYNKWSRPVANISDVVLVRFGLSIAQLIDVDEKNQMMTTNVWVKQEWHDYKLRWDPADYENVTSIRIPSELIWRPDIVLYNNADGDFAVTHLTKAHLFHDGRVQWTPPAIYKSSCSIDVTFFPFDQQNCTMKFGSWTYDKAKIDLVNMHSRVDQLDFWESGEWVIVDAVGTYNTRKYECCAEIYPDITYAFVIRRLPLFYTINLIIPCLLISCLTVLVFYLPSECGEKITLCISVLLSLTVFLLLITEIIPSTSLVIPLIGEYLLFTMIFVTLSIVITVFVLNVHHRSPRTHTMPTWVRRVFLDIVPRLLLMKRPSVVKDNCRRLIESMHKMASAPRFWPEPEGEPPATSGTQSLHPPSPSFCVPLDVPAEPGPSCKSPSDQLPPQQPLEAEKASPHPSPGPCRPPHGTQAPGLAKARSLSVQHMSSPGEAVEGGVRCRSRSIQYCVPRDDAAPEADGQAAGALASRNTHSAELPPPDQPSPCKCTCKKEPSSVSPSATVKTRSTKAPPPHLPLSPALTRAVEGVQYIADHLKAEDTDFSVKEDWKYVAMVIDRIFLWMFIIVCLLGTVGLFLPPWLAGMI

Vasopressin V2 receptor = Vasopressin V2 receptor (Homo sapiens, UniProt P30518)
Sequence of Vasopressin V2 receptor (P30518 whole entry): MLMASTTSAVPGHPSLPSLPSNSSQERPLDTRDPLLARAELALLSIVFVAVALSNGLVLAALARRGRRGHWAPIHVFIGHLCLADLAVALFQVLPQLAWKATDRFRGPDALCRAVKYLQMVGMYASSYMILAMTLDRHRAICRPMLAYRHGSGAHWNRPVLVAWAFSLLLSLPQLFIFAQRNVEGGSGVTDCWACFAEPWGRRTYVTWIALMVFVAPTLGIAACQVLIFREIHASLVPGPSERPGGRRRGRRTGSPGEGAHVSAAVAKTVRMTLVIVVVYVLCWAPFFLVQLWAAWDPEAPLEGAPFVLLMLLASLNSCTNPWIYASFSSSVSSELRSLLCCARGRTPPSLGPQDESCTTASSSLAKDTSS

Mu-type opioid receptor = Mu-type opioid receptor (Homo sapiens, UniProt P35372); experiment: biochemical; assay type: functional
Sequence of Mu-type opioid receptor (P35372 whole entry): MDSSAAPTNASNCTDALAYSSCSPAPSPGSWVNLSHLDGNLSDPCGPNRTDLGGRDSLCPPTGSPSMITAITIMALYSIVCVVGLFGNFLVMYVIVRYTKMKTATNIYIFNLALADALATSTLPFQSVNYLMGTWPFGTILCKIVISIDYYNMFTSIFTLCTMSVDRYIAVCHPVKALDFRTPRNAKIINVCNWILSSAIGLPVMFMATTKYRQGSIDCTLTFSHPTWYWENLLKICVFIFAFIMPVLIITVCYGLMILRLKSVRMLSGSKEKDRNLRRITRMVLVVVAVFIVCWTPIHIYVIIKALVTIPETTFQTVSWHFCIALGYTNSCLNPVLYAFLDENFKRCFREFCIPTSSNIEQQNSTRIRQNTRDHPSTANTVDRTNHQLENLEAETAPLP

[3] = molecular target: Beta-2 adrenergic receptor (Homo sapiens, UniProt P07550)
Sequence of Beta-2 adrenergic receptor (P07550 whole entry): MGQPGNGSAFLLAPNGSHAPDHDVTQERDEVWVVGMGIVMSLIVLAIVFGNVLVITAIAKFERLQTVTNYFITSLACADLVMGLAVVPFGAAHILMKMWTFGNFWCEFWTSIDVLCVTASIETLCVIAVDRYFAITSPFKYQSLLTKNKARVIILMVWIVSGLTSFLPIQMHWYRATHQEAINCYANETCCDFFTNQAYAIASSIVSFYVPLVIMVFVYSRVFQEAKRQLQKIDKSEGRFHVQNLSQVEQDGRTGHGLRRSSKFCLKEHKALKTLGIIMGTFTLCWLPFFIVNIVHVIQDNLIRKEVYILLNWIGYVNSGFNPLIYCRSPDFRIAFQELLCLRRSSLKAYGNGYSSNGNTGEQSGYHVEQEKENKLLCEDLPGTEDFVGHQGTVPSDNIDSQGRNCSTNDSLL

[4] = molecular target: Sodium-dependent dopamine transporter (Homo sapiens, UniProt Q01959)
Sequence of Sodium-dependent dopamine transporter (Q01959 whole entry): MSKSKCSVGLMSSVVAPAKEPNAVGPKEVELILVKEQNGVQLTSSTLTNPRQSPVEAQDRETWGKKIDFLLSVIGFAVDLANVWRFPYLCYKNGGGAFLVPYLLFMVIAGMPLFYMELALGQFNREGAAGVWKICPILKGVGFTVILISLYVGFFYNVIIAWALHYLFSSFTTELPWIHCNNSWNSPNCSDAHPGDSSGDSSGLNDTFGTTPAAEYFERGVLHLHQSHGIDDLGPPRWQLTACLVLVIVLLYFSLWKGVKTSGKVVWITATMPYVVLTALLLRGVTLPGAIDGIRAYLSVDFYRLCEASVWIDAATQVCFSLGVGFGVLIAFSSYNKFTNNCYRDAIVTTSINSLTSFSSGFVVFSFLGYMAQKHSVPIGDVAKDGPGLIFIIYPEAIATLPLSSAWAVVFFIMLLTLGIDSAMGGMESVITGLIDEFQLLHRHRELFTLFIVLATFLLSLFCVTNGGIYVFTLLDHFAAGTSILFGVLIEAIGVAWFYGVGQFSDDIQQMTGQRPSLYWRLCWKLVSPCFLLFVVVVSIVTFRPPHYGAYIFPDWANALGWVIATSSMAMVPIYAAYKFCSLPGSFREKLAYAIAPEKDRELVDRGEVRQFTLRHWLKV

[5] = molecular target: T2, Muscarinic acetylcholine receptor M2 (Homo sapiens, UniProt P08172); assay type: functional, cell-based
T2 sequence (P08172 whole entry): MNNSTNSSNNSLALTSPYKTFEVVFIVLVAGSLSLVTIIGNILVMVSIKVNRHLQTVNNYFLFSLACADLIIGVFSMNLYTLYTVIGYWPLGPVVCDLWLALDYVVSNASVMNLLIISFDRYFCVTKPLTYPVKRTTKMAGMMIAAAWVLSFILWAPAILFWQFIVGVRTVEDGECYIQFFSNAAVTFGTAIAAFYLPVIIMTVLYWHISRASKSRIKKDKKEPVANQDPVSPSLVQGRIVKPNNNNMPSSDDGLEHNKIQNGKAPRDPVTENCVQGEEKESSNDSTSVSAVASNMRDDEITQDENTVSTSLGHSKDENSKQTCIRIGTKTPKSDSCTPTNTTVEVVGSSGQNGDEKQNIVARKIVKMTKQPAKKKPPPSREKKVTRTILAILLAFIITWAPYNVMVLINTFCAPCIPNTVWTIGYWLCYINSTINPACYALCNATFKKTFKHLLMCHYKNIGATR

[6] = molecular target: T3, Cholecystokinin receptor type A (Homo sapiens, UniProt P32238)
T3 sequence (P32238 whole entry): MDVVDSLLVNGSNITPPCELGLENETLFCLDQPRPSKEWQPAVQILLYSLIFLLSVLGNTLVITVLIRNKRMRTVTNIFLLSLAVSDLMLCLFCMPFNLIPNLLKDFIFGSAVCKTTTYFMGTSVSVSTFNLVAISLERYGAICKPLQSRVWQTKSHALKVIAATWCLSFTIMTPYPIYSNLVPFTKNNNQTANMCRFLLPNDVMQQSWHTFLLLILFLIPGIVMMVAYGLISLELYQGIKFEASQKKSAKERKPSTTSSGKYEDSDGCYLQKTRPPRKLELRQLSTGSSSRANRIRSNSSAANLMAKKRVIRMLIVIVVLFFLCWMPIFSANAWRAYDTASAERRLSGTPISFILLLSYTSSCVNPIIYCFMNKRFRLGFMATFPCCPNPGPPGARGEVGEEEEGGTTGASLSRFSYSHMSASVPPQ

D(3) dopamine receptor = D(3) dopamine receptor (Homo sapiens, UniProt P35462)
Sequence of D(3) dopamine receptor (P35462 whole entry): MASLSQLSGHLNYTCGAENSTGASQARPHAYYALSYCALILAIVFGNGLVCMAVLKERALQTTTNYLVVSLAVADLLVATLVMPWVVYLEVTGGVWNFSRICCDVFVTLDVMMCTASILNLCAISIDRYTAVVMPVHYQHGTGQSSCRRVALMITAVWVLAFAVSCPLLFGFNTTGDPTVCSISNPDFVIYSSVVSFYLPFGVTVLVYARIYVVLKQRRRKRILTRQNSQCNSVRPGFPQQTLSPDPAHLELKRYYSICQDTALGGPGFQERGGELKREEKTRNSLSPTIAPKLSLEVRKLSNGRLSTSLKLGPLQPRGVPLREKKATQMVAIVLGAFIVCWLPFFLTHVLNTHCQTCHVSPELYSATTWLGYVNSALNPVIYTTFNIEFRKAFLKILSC

Motilin receptor = Motilin receptor (Homo sapiens, UniProt O43193)
Sequence of Motilin receptor (O43193 whole entry): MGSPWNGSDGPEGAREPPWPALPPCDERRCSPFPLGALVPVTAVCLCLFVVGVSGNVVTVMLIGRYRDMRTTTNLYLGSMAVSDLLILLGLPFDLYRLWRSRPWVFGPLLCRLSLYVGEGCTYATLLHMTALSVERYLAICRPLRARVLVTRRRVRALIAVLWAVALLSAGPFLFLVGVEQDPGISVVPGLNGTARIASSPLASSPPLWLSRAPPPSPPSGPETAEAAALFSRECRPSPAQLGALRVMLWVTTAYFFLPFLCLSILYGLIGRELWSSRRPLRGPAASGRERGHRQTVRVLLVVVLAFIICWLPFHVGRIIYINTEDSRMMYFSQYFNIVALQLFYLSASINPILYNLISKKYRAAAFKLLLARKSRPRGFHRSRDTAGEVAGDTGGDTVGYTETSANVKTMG

B2 bradykinin receptor = molecular target: T4, B2 bradykinin receptor (Homo sapiens, UniProt P30411)
T4 sequence (P30411 whole entry): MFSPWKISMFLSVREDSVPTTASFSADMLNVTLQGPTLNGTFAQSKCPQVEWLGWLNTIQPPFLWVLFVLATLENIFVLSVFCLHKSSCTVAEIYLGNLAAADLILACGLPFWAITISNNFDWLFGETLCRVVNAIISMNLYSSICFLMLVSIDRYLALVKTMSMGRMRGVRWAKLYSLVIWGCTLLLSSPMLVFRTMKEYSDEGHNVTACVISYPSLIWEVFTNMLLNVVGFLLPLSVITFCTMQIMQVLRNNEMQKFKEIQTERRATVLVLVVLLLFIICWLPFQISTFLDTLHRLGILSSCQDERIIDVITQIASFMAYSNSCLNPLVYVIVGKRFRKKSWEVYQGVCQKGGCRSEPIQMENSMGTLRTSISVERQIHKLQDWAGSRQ

[7] = molecular target: 5-hydroxytryptamine receptor 2A (Homo sapiens, UniProt P28223); assay type: functional, cell-based
Sequence of 5-hydroxytryptamine receptor 2A (P28223 whole entry): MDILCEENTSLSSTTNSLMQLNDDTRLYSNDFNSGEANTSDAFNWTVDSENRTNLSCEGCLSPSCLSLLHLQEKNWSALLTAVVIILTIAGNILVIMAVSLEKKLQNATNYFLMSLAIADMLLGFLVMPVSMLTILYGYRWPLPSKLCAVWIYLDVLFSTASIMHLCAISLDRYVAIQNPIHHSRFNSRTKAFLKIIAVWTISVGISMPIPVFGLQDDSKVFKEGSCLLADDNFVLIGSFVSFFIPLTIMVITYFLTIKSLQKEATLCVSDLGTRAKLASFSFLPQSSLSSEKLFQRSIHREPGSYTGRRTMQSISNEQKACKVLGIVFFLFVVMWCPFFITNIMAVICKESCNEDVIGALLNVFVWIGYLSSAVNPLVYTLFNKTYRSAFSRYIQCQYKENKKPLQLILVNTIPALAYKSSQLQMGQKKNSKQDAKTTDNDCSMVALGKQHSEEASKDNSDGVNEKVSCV

Endothelin-1 receptor = molecular target: T5, Endothelin-1 receptor (Homo sapiens, UniProt P25101)
T5 sequence (P25101 whole entry): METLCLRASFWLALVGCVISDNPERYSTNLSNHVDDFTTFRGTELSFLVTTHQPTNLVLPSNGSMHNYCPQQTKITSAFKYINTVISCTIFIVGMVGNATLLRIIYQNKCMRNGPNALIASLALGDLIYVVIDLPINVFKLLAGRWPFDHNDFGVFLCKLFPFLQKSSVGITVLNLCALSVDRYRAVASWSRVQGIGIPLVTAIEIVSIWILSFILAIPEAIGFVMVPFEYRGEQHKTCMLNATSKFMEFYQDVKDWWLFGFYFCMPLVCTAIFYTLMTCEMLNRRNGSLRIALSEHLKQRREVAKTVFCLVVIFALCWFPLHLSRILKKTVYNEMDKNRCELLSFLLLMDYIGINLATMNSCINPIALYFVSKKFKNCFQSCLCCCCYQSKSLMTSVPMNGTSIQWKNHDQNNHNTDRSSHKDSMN

[8] = molecular target: Muscarinic acetylcholine receptor M3 (Homo sapiens, UniProt P20309)
Sequence of Muscarinic acetylcholine receptor M3 (P20309 whole entry): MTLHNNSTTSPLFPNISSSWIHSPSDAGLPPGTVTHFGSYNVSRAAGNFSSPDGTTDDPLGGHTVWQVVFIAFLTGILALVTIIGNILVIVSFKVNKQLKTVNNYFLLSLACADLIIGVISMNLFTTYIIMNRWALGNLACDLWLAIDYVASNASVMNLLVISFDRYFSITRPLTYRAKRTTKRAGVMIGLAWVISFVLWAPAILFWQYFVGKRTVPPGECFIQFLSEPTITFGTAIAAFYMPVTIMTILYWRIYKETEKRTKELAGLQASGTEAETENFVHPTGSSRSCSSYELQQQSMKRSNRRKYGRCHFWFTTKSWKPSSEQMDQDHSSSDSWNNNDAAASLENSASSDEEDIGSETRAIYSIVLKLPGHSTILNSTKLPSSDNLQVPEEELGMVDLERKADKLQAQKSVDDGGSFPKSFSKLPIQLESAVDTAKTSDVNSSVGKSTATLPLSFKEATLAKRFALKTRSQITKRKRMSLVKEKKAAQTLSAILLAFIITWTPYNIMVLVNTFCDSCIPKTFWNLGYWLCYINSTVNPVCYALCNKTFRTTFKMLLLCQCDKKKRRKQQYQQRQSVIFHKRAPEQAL
Also: assay procedure not described here.

Sequence of Histamine H2 receptor (P25021 whole entry): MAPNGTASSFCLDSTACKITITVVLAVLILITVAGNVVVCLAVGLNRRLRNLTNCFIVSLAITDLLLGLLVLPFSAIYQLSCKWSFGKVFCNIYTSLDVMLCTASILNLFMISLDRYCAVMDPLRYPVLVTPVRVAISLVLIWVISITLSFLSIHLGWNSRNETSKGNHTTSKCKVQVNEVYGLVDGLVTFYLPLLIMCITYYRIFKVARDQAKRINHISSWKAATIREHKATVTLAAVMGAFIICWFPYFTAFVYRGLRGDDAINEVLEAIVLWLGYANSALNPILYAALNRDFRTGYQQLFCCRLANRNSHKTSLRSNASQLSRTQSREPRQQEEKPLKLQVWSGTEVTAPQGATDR

Row | Compound | AC50 (Histamine H2 receptor) [µM] | AC50 [1] [µM] | AC50 [2] [µM] | AC50 (Vasopressin V2 receptor) [µM] | AC50 (Mu-type opioid receptor) [µM] | AC50 [3] [µM] | AC50 [4] [µM] | AC50 [5] [µM] | AC50 [6] [µM] | AC50 (D(3) dopamine receptor) [µM] | AC50 (Motilin receptor) [µM] | AC50 (B2 bradykinin receptor) [µM] | AC50 [7] [µM] | AC50 (Endothelin-1 receptor) [µM] | AC50 [8] [µM]
1 | C[C@]12CC[C@H]3[C@@H](CCC4=CC(=O)CC[C@@]43C)[C@@H]1CC[C@@H]2O [TESTOSTERONE] | > 30 | > 10 | > 10 | > 10 | > 30 | > 10 | > 10 | > 10 | > 10 | > 30 | > 10 | > 10 | – | – | –
2 | COc1ccc2c3c1O[C@H]1C(=O)CC[C@@]4(O)[C@@H](C2)N(C)CC[C@]314 [OXYCODONE] | > 30 | – | > 30 | > 30 | – | > 30 | > 30 | > 30 | > 30 | > 30 | > 30 | > 30 | > 30 | > 30 | > 30
3 | O=C(O)C[C@H](O)C[C@H](O)/C=C/c1c(C2CC2)nc2ccccc2c1-c1ccc(F)cc1 [PITAVASTATIN] | > 10 | > 30 | > 30 | > 10 | – | > 10 | > 30 | > 30 | > 10 | > 30 | > 10 | > 10 | > 30 | – | > 30
4 | Nc1nc(N)nc(-c2cc(Cl)ccc2Cl)n1 [IRSOGLADINE] | > 30 | > 30 | > 30 | > 30 | > 30 | > 30 | > 30 | > 30 | > 30 | – | > 30 | > 30 | – | > 30 | –
5 | CCCCc1ncc(/C=C(\Cc2cccs2)C(=O)O)n1Cc1ccc(C(=O)O)cc1 [EPROSARTAN] | > 10 | > 10 | > 10 | > 30 | – | > 10 | > 30 | > 10 | > 30 | > 10 | > 10 | > 30 | > 30 | > 30 | > 10
6 | CC1(C)O[C@@H]2C[C@H]3[C@@H]4CCC5=CC(=O)C=C[C@]5(C)[C@H]4[C@@H](O)C[C@]3(C)[C@]2(C(=O)CO)O1 [DESONIDE] | > 10 | > 10 | > 10 | > 10 | – | > 10 | > 10 | > 10 | > 10 | > 30 | > 10 | > 10 | > 10 | – | > 30
7 | O=C(NCCN1CCOCC1)c1ccc(Cl)cc1 [MOCLOBEMIDE] | > 10 | > 10 | > 10 | > 10 | > 30 | > 10 | > 10 | > 10 | > 10 | > 30 | > 10 | > 10 | – | – | –
8 | Cc1ccc(S(=O)(=O)NC(=O)NN2CC3CCCC3C2)cc1 (centres undefined) [GLICLAZIDE] | > 30 | > 30 | > 10 | > 10 | > 30 | > 10 | > 10 | > 10 | > 10 | > 30 | > 10 | > 10 | – | – | –
9 | CCc1c(Cl)c(O)c(Cl)c(O)c1C(=O)O[C@H]1[C@H](O)[C@H](OC)[C@H](OC/C2=C\C=C\C[C@H](O)/C(C)=C/[C@H](CC)[C@@H](O[C@@H]3OC(C)(C)[C@@H](OC(=O)C(C)C)[C@H](O)[C@@H]3O)/C(C)=C/C(C)=C/C[C@@H]([C@@H](C)O)OC2=O)O[C@@H]1C [FIDAXOMICIN] | – | > 30 | > 10 | > 30 | – | > 10 | > 30 | – | – | > 30 | > 10 | > 30 | > 30 | > 30 | –
10 | C/C(O)=C(\C#N)C(=O)Nc1ccc(C(F)(F)F)cc1 [TERIFLUNOMIDE] | – | > 30 | > 30 | – | – | – | > 30 | > 30 | > 30 | > 30 | > 30 | – | > 30 | > 30 | > 30
11 | CCCC(=O)O[C@]1(C(=O)CO)CC[C@H]2[C@@H]3CCC4=CC(=O)CC[C@]4(C)[C@H]3[C@@H](O)C[C@@]21C [HYDROCORTISONE BUTYRATE] | > 10 | > 10 | > 10 | > 10 | – | > 10 | > 10 | > 10 | > 10 | > 30 | > 10 | > 10 | > 10 | – | > 30
12 | C[C@](N)(Cc1ccc(O)c(O)c1)C(=O)O [METHYLDOPA] | > 30 | > 10 | > 10 | > 10 | > 30 | > 10 | > 10 | > 10 | > 10 | > 30 | > 10 | > 10 | – | – | –
13 | CN1C(=O)C(O)N=C(c2ccccc2)c2cc(Cl)ccc21 (centres undefined) [TEMAZEPAM] | > 10 | > 10 | > 10 | > 30 | – | > 10 | > 10 | > 10 | > 30 | > 10 | > 10 | > 30 | > 30 | > 30 | > 10
14 | CCCc1nc(C(C)(C)O)c(C(=O)OCc2oc(=O)oc2C)n1Cc1ccc(-c2ccccc2-c2nnn[nH]2)cc1 [OLMESARTAN MEDOXOMIL] | > 10 | > 10 | > 10 | > 30 | – | > 10 | > 30 | > 10 | > 50 | > 10 | > 10 | > 30 | > 30 | > 50 | > 10
